Assays:
Type in all cases: in vivo
Inbred Seed Corn [1] = assay: Warm germination test of harvested seed; details: for WARM GERM, sum: sum of the four size/shape categories
Description: (§1) Seed quality can be evaluated by germination tests, such as warm germination, cold germination, and saturated cold germination. These types of tests are commonly used to predict seed germination and emergence. Among these tests, the saturated cold germination test exposes the seeds to cold, wet, and oxygen deficient stress, and is thus considered probative of seed germination viability over a range of field conditions. […]
(§2) • Crop: Inbred Seed Corn • Variety: D2905VT3P • Plot Location: New Haven, WI • Season/Year: Summer/2014 • Corn Stage at Application: to Full Dent • Moisture at Application: 44% • Application Equipment: Case Patriot Sprayer • Application Conditions: Temperature: 88-90° F. • Sky: Clear • Wind: 2-3 mph • Application Diluent: Water • Application Volume: 20 gallons per acre • Number of full days between application and harvest: 10 days • Post Harvest Seed Treatment: CruiserMaxx® Corn 250 Test Plot Treatments: • Plot 1—Untreated Check • Plot Size: Balance of Field • Plot 2—Treatment A • Defol® 5: 4.8 quarts per acre • Sodium cyanate: 6.4 grams per acre • Water: 75.2 quarts per acre • Plot Size: 16 acres • Plot 3—Defol® 750 Treatment Check • Defol® 750: 3.2 quarts per acre • Water: 76.8 quarts per acre • Plot Size: 16 acres • Plot 4—Treatment B • Sodium cyanate: 6.4 grams per acre • Water: 80 quarts per acre • Plot Size: 16 acres
(§3) Samples of corn seed from each of the three test plots were evaluated for desirable/saleable seed size and shape, as well as germination under certain test conditions: warm germination, cold germination and saturated cold germination. Each of the four evaluated categories (i.e., 24/21 Round, 21/16 Round, 24/21 Flat, 21/16 Flat) constituted desirable and saleable seed size and shape. The results were as follows:
as §2, with “D3910VT2P” for “D2905VT3P”, “Springville,” for “New Haven,”, “Very early start of dent” for “to Full Dent”, “50-55%” for “44%”, “17” for “10”
as §3, with “25/20” for “24/21”, “20/16” for “21/16”, “shape.” for “shape. The results were as follows:”

Inbred Seed Corn [2] = assay: Saturated cold (super cold) germination test of harvested seed; details: for SUPER COLD, sum: sum of the four size/shape categories
Description: Seed quality can be evaluated by germination tests, such as warm germination, cold germination, and saturated cold germination. These types of tests are commonly used to predict seed germination and emergence. Among these tests, the saturated cold germination test exposes the seeds to cold, wet, and oxygen deficient stress, and is thus considered probative of seed germination viability over a range of field conditions.
The term “seed vigor” refers to a measure of the quality of a seed assemblage based on certain properties, such as percent germination, which can predict seed germination and emergence under a wide range of field conditions, particularly stress conditions. The methodology of the present disclosure can be followed to produce a seed assemblage that is characterized by enhanced seed vigor, as determined by seed vigor testing. […] One such technique is known as the saturated cold germination test. According to the Seed Vigor Testing Handbook by the Association of Official Seed Analysts (2009), the saturated cold germination test is the most stressful of various cold-test procedures for determining the vigor of a seed assemblage. In this test, the soil or planting medium is maintained at 100% water holding capacity for the duration of the test, which also subjects seeds to sub-optimal temperatures and soil-borne pathogens. These conditions evaluate seeds based on their response to three stress factors: imbibitional chilling injury, attack by soil-borne pathogens, and limited oxygen availability. These harsh conditions can allow testers to discriminate between seed assemblages differing in vigor, and thus the saturated cold germination test can act as a good indicator of seed quality for many crops. […]
as §2
as §3, with “follows: […]” for “follows:”

Inbred Seed Corn [3] = assay: Seed size and shape evaluation of seed from treated field plots (estimated units, bag weight, proportions); details: for % RDS: rounds as share of all units; for ABOVE 25: seed above size 25; for BELOW 17: seed below size 17; for EST. UNITS, total: sum of the four size/shape categories
Protocol: In an actively growing seed corn field scheduled to be treated with Drexel Defol® 750, four test plots were evaluated. Two plots were treated with Drexel Defol® 5, a sodium chlorate formulation containing 5 pounds of active sodium chlorate per gallon, and with varying amounts of cyanate anions. Sodium cyanate salt was used as the source of cyanate for its compatibility with sodium chlorate. The results of these two treatments were compared to an untreated check and a plot treated with Defol® 750, which contained 7.5 pounds of active sodium chlorate per gallon. The amount of active sodium chlorate applied in the three treated plots was equivalent.
• Crop: Inbred Seed Corn • Variety: A0036RMQKZ×HCL4011 • Plot Sizes: 5 acres for Plots 1-3; 7 acres for Plot 4 • Plot Location: Near Oxford, WI • Season/Year: Summer/2013 • Corn Stage: Full Dent • Application Equipment: Case Patriot Sprayer • Application Conditions: Temperature: 86° F. • Sky: Sunny • Wind: 4 mph • Application Diluent: Water • Application Volume: 20 gallons per acre • Number of full days between application and harvest: 24 days • Post Harvest Seed • Treatment: CruiserMaxx® Corn 250 Test Plot Treatments: • Plot 1—Untreated Check • Plot Size: 5 acres • Plot 2—Treatment A • Defol® 5: 4.8 quarts per acre • Sodium cyanate: 6.4 grams per acre • Water: 75.2 quarts per acre • Plot Size: 5 acres • Plot 3—Treatment B • Defol® 5: 4.8 quarts per acre • Sodium cyanate: 15.9 grams per acre • Water: 75.2 quarts per acre • Plot size: 5 acres • Plot 4—Defol® 750 Treatment Check • Defol® 750: 3.2 quarts per acre • Water: 76.8 quarts per acre • Plot size: 7 acres
Samples of corn seed from each of the four test plots were evaluated for seed size, shape, as well as germination under certain test conditions: warm germination, cold germination and saturated cold germination. Each of the four evaluated categories (i.e., 26/21 Round, 21/17 Round, 26/21 Flat, 21/17 Flat) constituted desirable and saleable seed size and shape. Evaluation was performed at Biodiagnostics, Inc., River Falls, WI. The results were as follows:
as §2, with “D2507VT3P” for “D2905VT3P”, “Jackson,” for “New Haven,”, “42%” for “44%”, “8” for “10”, “acres” for “acres • Plot 4—Treatment B • Sodium cyanate: 6.4 grams per acre • Water: 80 quarts per acre • Plot Size: 16 acres”
as §3, with “21/17” for “21/16”, “follows: […]” for “follows:”

Inbred Seed Corn [4] = assay: Cold germination test of harvested seed; details: for COLD GERM, sum: sum of the four size/shape categories
Description: as §1, §2, §3
as §2, with “D3910VT2P” for “D2905VT3P”, “Springville,” for “New Haven,”, “Very early start of dent” for “to Full Dent”, “50-55%” for “44%”, “17” for “10”
as §3, with “25/20” for “24/21”, “20/16” for “21/16”, “shape.” for “shape. The results were as follows:”

[5] = Example 2 Hybrid 2 (D2905VT3P, 2014), seed size 21/16F
[6] = Example 2 Hybrid 2 (D2905VT3P, 2014), seed size 21/16R
[7] = Example 2 Hybrid 2 (D2905VT3P, 2014), seed size 24/21F
[8] = Example 2 Hybrid 2 (D2905VT3P, 2014), seed size 24/21R
[9] = Example 2 Hybrid 3 (D3910VT2P, 2014), seed size 20/16F
[10] = Example 2 Hybrid 3 (D3910VT2P, 2014), seed size 20/16R
[11] = Example 2 Hybrid 3 (D3910VT2P, 2014), seed size 25/20F
[12] = Example 2 Hybrid 3 (D3910VT2P, 2014), seed size 25/20R
[13] = Example 2 Hybrid 2, column headed GRAMS in the 8th table
[14] = Example 2 Hybrid 3, column headed GRAMS in the 12th table

## N#CO [Cyanate, Sodium cyanate]
Inbred Seed Corn [1]; [5]
  WARM GERM: 96%
Inbred Seed Corn [1]; [6]
  WARM GERM: 96%
Inbred Seed Corn [1]; [7]
  WARM GERM: 99%
Inbred Seed Corn [1]; [8]
  WARM GERM: 98%
Inbred Seed Corn [1]; Example 2 Hybrid 2
  WARM GERM, sum: 389%
Inbred Seed Corn [1]; [9]
  WARM GERM: 98%
Inbred Seed Corn [1]; [10]
  WARM GERM: 96%
Inbred Seed Corn [1]; [11]
  WARM GERM: 99%
Inbred Seed Corn [1]; [12]
  WARM GERM: 99%
Inbred Seed Corn [1]; Example 2 Hybrid 3
  WARM GERM, sum: 392%
Inbred Seed Corn [2]; Example 2, over the Untreated Checks, particularly Hybrid 3
  seed vigor based on the super cold germination percentage: increased seed vigor
Inbred Seed Corn [2]; [5]
  SUPER COLD: 95%
Inbred Seed Corn [2]; [6]
  SUPER COLD: 92%
Inbred Seed Corn [2]; [7]
  SUPER COLD: 97%
Inbred Seed Corn [2]; [8]
  SUPER COLD: 99%
Inbred Seed Corn [2]; Example 2 Hybrid 2
  SUPER COLD, sum: 383%
Inbred Seed Corn [2]; [9]
  SUPER COLD: 90%
Inbred Seed Corn [2]; [10]
  SUPER COLD: 92%
Inbred Seed Corn [2]; [11]
  SUPER COLD: 95%
Inbred Seed Corn [2]; [12]
  SUPER COLD: 95%
Inbred Seed Corn [2]; Example 2 Hybrid 3
  SUPER COLD, sum: 372%
Inbred Seed Corn [3]; [5]
  EST. BAG WT.: 40.5 lbs
  EST. UNITS: 198
Inbred Seed Corn [3]; [6]
  EST. BAG WT.: 45.7 lbs
  EST. UNITS: 392
Inbred Seed Corn [3]; [7]
  EST. BAG WT.: 51.6 lbs
  EST. UNITS: 180
Inbred Seed Corn [3]; [8]
  EST. BAG WT.: 60.5 lbs
  EST. UNITS: 253
Inbred Seed Corn [3]; Example 2 Hybrid 2, 21/16F units as share of 24/21F and 21/16F
  % SF OF ALL FL: 52.38%
Inbred Seed Corn [3]; Example 2 Hybrid 2, 21/16R units as share of 24/21R and 21/16R
  % SR OF ALL RDS: 60.78%
Inbred Seed Corn [3]; Example 2 Hybrid 2
  % RDS: 63.05%
  EST. UNITS, total: 1023
Inbred Seed Corn [3]; [13]
  ABOVE 25: 5
  BELOW 17: 21
Inbred Seed Corn [3]; Example 2 Hybrid 2 and Hybrid 3, compared to the Untreated Checks
  yields and proportions of seed at desirable and saleable sizes and shapes: higher yields and proportions
Inbred Seed Corn [3]; [9]
  EST. BAG WT.: 40.1 lbs
  EST. UNITS: 232
Inbred Seed Corn [3]; [10]
  EST. BAG WT.: 42.7 lbs
  EST. UNITS: 218
Inbred Seed Corn [3]; [11]
  EST. BAG WT.: 50.6 lbs
  EST. UNITS: 361
Inbred Seed Corn [3]; [12]
  EST. BAG WT.: 57 lbs
  EST. UNITS: 234
Inbred Seed Corn [3]; Example 2 Hybrid 3, 20/16F units as share of 25/20F and 20/16F
  % SF OF ALL FL: 39.12%
Inbred Seed Corn [3]; Example 2 Hybrid 3, 20/16R units as share of 25/20R and 20/16R
  % SR OF ALL RDS: 48.23%
Inbred Seed Corn [3]; Example 2 Hybrid 3
  % RDS: 43.25%
  EST. UNITS, total: 1045
Inbred Seed Corn [3]; [14]
  ABOVE 25: 4
  BELOW 17: 23
Inbred Seed Corn [3]; Examples 1 and 2, compared to the Untreated Check
  bag weight, in words: more desirable bag weights
Inbred Seed Corn [4]; [5]
  COLD GERM: 98%
Inbred Seed Corn [4]; [6]
  COLD GERM: 96%
Inbred Seed Corn [4]; [7]
  COLD GERM: 99%
Inbred Seed Corn [4]; [8]
  COLD GERM: 96%
Inbred Seed Corn [4]; Example 2 Hybrid 2
  COLD GERM, sum: 389%
Inbred Seed Corn [4]; [9]
  COLD GERM: 95%
Inbred Seed Corn [4]; [10]
  COLD GERM: 95%
Inbred Seed Corn [4]; [11]
  COLD GERM: 96%
Inbred Seed Corn [4]; [12]
  COLD GERM: 97%
Inbred Seed Corn [4]; Example 2 Hybrid 3
  COLD GERM, sum: 383%

Reference: US12635686B2, “Compositions and methods for imposing seed quality” (priority 2014, dated 2026)
